Results: paper PMC11642486 (International Journal of Molecular Sciences, 2024)
Where a name gives a salt, the structure may show the parent alone. Read-outs that look alike come from different tables or passages of the source.

How the values were obtained:
[1] = system: LPS-activated microglia cells; assay: RNA-sequencing of LPS-activated microglia cells treated with drug; type: cell-based, mouse; conditions: 30 µM DMF
Procedure: Microglia cells were activated with LPS and treated with the same drug concentrations at the same timepoints. Each experiment was repeated three times. RNA was extracted using the Maxwell® 16 LEV simplyRNA Cells Kit and the robotic platform Maxwell® 16 (both from Promega Biotech Ibérica) following the manufacturer’s instructions. RNA-sequencing was performed as previously described using the NovaSeq 6000 Sequencing System (Illumina, San Diego, CA, USA) by pair-end (150 x 2) and at a sequencing depth of 20 million reads per sample [60]. FastQC v0.12.1 and Cutadapt v4.4 were used for quality control of the raw reads and removal of the adapter sequences, respectively. Trimmomatic v0.39 was employed to further select trimmed reads larger than 20 nucleotides and with a sequencing quality score greater than 30 [62]. Reads were aligned with HISAT2 v2.2.1 to the mouse or rat genome assemblies GRCm39 and mRatBN7.2, respectively. Mapped reads were annotated using Ensembl gene annotation v110 for the mouse genome and v111 for the rat genome and counts quantified using HTSeq v2.0.3 [63]. Gene counts were analyzed using principal components with custom R scripts (R version 4.3.1). DESeq2 v1.40.2 was used for differential expression analysis.

[2] = system: BV-2 immortalized murine cell line (microglia); assay: Cell viability assay (CellTiter-Glo) in microglia; type: cell-based
Procedure: Cell viability was measured at 24, 48, and 72 h of treatment with different drug concentration ranges. For each cellular type, we determined the half-maximal inhibitory concentration (IC50) of each drug. In neurons, as a non-proliferative primary culture, the IC50 was defined as the drug concentration able to diminish cell viability by 50% with respect to the vehicle-treated control. In microglia, as a proliferative cell line, the IC50 was defined as the drug concentration able of inhibiting by 50% cellular proliferation with respect to the vehicle-treated control.
(§1) Primary hippocampal neurons were obtained from Wistar rats on embryonic day 18. Briefly, embryos were removed from the womb under sterile conditions and decapitated to dissect the brains. Hippocampi were isolated at 4 °C in Hank’s balanced salt solution (HBSS) without calcium and magnesium, supplemented with 10 mM HEPES buffered saline and 100 U/mL of penicillin-streptomycin. The hippocampi were mechanically disaggregated using fire-polished pipettes and plated for 2–4 h in neuronal plating medium composed of minimum essential medium (MEM) enriched with 0.6% D-glucose and 10% horse serum. Neuronal plating medium was replaced by neurobasal medium supplemented with 1X B-27 and 2 mM L-glutamine. Neurons were grown for 7 days prior to the experiments. For the microglial cells, we used the BV-2 immortalized murine cell line. Microglial cells were cultured in Dulbecco’s modified Eagle medium (DMEM) with 4.5 g/L D-glucose, 2 mM L-glutamine, 100 U/mL of penicillin-streptomycin, and 10% heat-inactivated fetal bovine serum. Cells were maintained at 37 °C in a humidified incubator with 5% CO2. All culture media were purchased from Thermo Fisher Scientific (Waltham, MA, USA).
(§2) Neurons and microglia were both seeded at a density of 10,000 cells/well in 96-well plates previously treated with 0.1 mg/mL of poly-L-lysine (Sigma-Aldrich). […] Cell viability was determined at 24, 48, and 72 h. The percentage of viable cells was quantified using the CellTiter-Glo® Luminescent Cell Viability Assay (Promega Biotech Ibérica, Madrid, Spain) following the instructions by the manufacturer. The […] of the cell culture media alone was subtracted as the background from all readings. Cell viability in the drug-treated cells was normalized to their respective vehicle controls. Experiments were repeated three times, each condition in triplicate.
(§3) Statistical analysis was performed using Prism 8 software (GraphPad, Boston, MA, USA). For the cell viability assays, a linear regression analysis was made with logarithmic transformation of the drug concentrations in the X-axis. The coefficient of determination (R²) was calculated as a measurement of the adjustment of the data to the regression model. The Mann–Whitney test was used to compare two different conditions. The Kruskal–Wallis test was used to compare the different concentrations of each drug against the vehicle or LPS. Statistical significance was established at p < 0.05.

[3] = system: NF-kB p65; assay: NF-kB p65 nuclear translocation by immunofluorescence in LPS-activated microglia; type: cell-based, murine; conditions: LPS + drug 30 min
Procedure: Lipopolysaccharide (LPS) from Escherichia coli 026:B6 in an aqueous solution (Thermo Fisher Scientific) was used as proinflammatory stimuli in microglia at a final concentration of 600 ng/mL. For the LPS experiments, the concentration of fetal bovine serum in the microglia culture medium was reduced to 0.1% immediately before drug treatment. All of the compounds were titrated in their respective vehicle and diluted into the culture media for cell treatments. The final concentration of vehicle (DMSO, EtOH or H2O) was consistent for all treated cells (0.2%).
For the immunofluorescence experiments, neurons and microglia were directly seeded on glass coverslips previously treated with 1 mg/mL of poly-L-lysine. […] After the drug treatments, the cells were fixed on ice with 4% paraformaldehyde for 25 min and then permeabilized and blocked using 0.1% Triton X-100 (10 min) and 5% BSA (30 min), respectively. Cells were then incubated overnight with the primary antibodies and 1% BSA at 4 °C. The primary antibodies anti-Nrf2 (ab1375550) and anti-NF-kB p65 (ab16502) (both from Abcam, Cambridge, United Kingdom) were used at 1:200. After washing with PBS, cells were incubated with the fluorophore-conjugated secondary antibody anti-Rabbit IgG Alexa Fluor 488 (Thermo Fisher Scientific) at 1:500 for 1 h at room temperature. Cells were counterstained with the TO-PRO fluorescent dye (Thermo Fisher Scientific) to visualize the cell nuclei. Images were captured using the confocal microscope Leica TCS SP5 (Leica Microsystems, Wetzlar, Germany). For each experimental condition, five random fields were captured and analyzed using ImageJ software (National Institutes of Health, Maryland, DC, USA). Activation of Nrf2 or NF-kB was defined as nuclear translocation, measured by the increase in the mean fluorescence intensity (MFI) in the nucleus. Each experiment was repeated three times.

[4] = system: Primary hippocampal neurons; assay: Cell viability assay (CellTiter-Glo) in neurons; type: cell-based, Wistar rats; conditions: for IC50: concentration diminishing cell viability by 50% vs vehicle
Procedure: Cell viability was measured at 24, 48, and 72 h of treatment with different drug concentration ranges. For each cellular type, we determined the half-maximal inhibitory concentration (IC50) of each drug.
as §1, §2, §3

[5] = after oral intake of the therapeutic dose established for DMF; cited from earlier work
[6] = Mus musculus, Microglia, 24 h, microglia, 24 h, concentration inhibiting cellular proliferation by 50% vs vehicle, read-out: IC50 (cell viability)
[7] = Mus musculus, Microglia, 48 h, microglia, 48 h, concentration inhibiting cellular proliferation by 50% vs vehicle, read-out: IC50 (cell viability)
[8] = Mus musculus, Microglia, 72 h, microglia, 72 h, concentration inhibiting cellular proliferation by 50% vs vehicle, read-out: IC50 (cell viability)
[9] = Rattus norvegicus, Hippocampal neuron, 24 h, neurons, 24 h, read-out: IC50 (cell viability)
[10] = Rattus norvegicus, Hippocampal neuron, 48 h, neurons, 48 h, read-out: IC50 (cell viability)
[11] = Rattus norvegicus, Hippocampal neuron, 72 h, neurons, 72 h, read-out: IC50 (cell viability)
[12] = neurons, 24 h, read-out: IC50 (cell viability)
[13] = neurons, 72 h, read-out: IC50 (cell viability)

Compound | number of DEGs vs cells treated with LPS alone ([1]; 4 h, 30 µM MMF, 6 µM CBD) | number of downregulated DEGs vs LPS alone ([1]; 24 h, 6 µM CBD) | number of upregulated DEGs vs LPS alone ([1]; 24 h, 6 µM CBD) | number of DEGs vs cells treated with LPS alone ([1]; 24 h, 30 µM MMF, 6 µM CBD) | number of downregulated DEGs vs LPS alone ([1]; 4 h, 30 µM MMF) | number of upregulated DEGs vs LPS alone ([1]; 4 h, 30 µM MMF) | IC50 [2, 6] [µM] | IC50 [2, 7] [µM] | IC50 [2, 8] [µM] | IC50 [4, 9] [µM] | IC50 [4, 10] [µM] | IC50 [4, 11] [µM] | IC50 [4, 12] [µM] | IC50 [4, 13] [µM] | other results
C=C(C)[C@@H]1CCC(C)=C[C@H]1c1c(O)cc(CCCCC)cc1O [CBD, cannabidiol] | 2 | 1265 | 1345 | 2610 | – | – | – | – | – | – | – | – | – | – | IC50 ([2]; Mus musculus, Microglia, 24 h, read-out: IC50 (cell viability), microglia, 24 h, concentration inhibiting cellular proliferation by 50% vs vehicle): 12 µM; IC50 ([2]; Mus musculus, Microglia, 48 h, read-out: IC50 (cell viability), microglia, 48 h, concentration inhibiting cellular proliferation by 50% vs vehicle): 12.2 µM; IC50 ([2]; Mus musculus, Microglia, 72 h, read-out: IC50 (cell viability), microglia, 72 h, concentration inhibiting cellular proliferation by 50% vs vehicle): 11.8 µM; IC50 ([2]; Mus musculus, Microglia, 72 h, read-out: IC50 (cell viability), microglia, all of the studied timepoints (24, 48, 72 h)): ~12 µM; effect on LPS-induced NF-kB p65 nuclear translocation, in words ([3]; 4 µM): inhibition of NF-kB p65; effect on LPS-induced NF-kB p65 nuclear translocation, in words ([3]; 6 µM): inhibition of NF-kB p65; effect on LPS-induced NF-kB p65 nuclear translocation, in words ([3]; CBD concentrations higher than 6 µM): this inhibition was not achieved; IC50 ([4]; Rattus norvegicus, Hippocampal neuron, 24 h, read-out: IC50 (cell viability), neurons, 24 h): 15.1 µM; IC50 ([4]; Rattus norvegicus, Hippocampal neuron, 48 h, read-out: IC50 (cell viability), neurons, 48 h): 13.6 µM; IC50 ([4]; Rattus norvegicus, Hippocampal neuron, 72 h, read-out: IC50 (cell viability), neurons, 72 h): 13 µM; decrease in cell viability ([4]; neurons, 10 µM): around 20%; IC50 ([4]; read-out: IC50 (cell viability), neurons, 24 h): 15 µM; IC50 ([4]; read-out: IC50 (cell viability), neurons, 72 h): 13 µM
COC(=O)/C=C/C(=O)OC [DMF, Dimethyl fumarate] | 542 | 146 | 230 | 376 | 340 | 202 | 37.2 | 40.8 | 73.2 | 103 | 54.5 | 36.5 | ~100 | 36 | number of DEGs with strong downregulation ([1]; 24 h): 67; number of DEGs with strong upregulation ([1]; 24 h): 128; IC50 ([2]; microglia, 24 h, concentration inhibiting cellular proliferation by 50% vs vehicle, read-out: IC50 (cell viability)): 37 µM; IC50 ([2]; microglia, 72 h, concentration inhibiting cellular proliferation by 50% vs vehicle, read-out: IC50 (cell viability)): 73 µM; decrease in cell viability ([4]; neurons, 30 µM): around 20%
COC(=O)/C=C/C(=O)O [MMF, monomethyl fumarate] | eight | – | – | could not detect any transcriptomic changes | three | five | 49.5 | 41.7 | 56.6 | 67.8 | 42.5 | 55.6 | ~65 | 55 | IC50 ([2]; Mus musculus, Microglia, 72 h, microglia, all of the studied timepoints (24, 48, 72 h), read-out: IC50 (cell viability)): ~50 µM; concentration of MMF detected in the brain [5]: approximately 100 µM; effect on LPS-induced NF-kB p65 nuclear translocation, in words ([3]; any of the studied concentrations): did not prevent the activation of NF-KB
